The values below come from patent US20240397979A1, “METHODS FOR DELIVERING BENEFICIAL NUTRIENTS TO INVERTEBRATES THROUGH A MICROORGANISM DEFICIENT IN ANTINUTRIENTS” (APIX BIOSCIENCES, priority 2021, published 2024).

The test system of one series is honey bees. Put plainly: Brood production of honey bee colonies on diets with ergosterol. Format: in vivo, Apis mellifera. As to conditions: bee food with ergosterol vs without, FIGS. 3 and 4. Here is the method: Example 3 and 4. Brood Production: Honey Bees Cannot Produce Brood on Diets with high quantities of ergosterol Method: Fully functional insulated styrofoam […] nucs comprised 5 mini frames populated with adult workers and 1 mated laying queen bee were populated with 300-400 ml of young adult workers ( N<1,000 bees of mixed ages). […] Each treatment was tested with 3-6 colonies; each colony was fed with a 60-100 g patty (solid diet) on the top feeder fitted with a mesh floor. Diet was fed on the first day and again on day 6; the quantity consumed was measured on day 6 and day 15. If no larvae or eggs/queen are observed by day 6 then the experiment is terminated. The number of capped brood cells was counted every 15 days. The number of bee seams was estimated during each inspection. Sugar syrup (34%) and water was provided in feeders inside the tent to prevent carbohydrate starvation and to stimulate foraging activity.

A further series relates to Nosema ceranae. Put plainly: Nosema infection of bees fed ergosterol-containing diet. Format: in vivo. Conditions: diet supplemented with ergosterol, FIG. 5. The text has this:
Method: Newly emerged adult worker honey bees (Apis mellifera) or adult worker bumble bees (Bombus terrestris) were reared in an assay to test whether diet induced an increase in Nosema ceranae infection. Bees had access to a diet composed of 15% protein, 6% fat, 78% carbohydrates and 1% vitamins and minerals and adlibitum access to water and sucrose solution. One treatment diet contained the ergosterol and the other contained no sterol. Newly emerged bees were removed from the brood frame and cohorts of 30 bees per replicate were housed in plastic rearing cages. In all experiments, 10 cohorts of ˜30 bees each were used for each treatment group. Consumption of each diet was measured every 24 h for 14 days.
Nosema ceranae infection of each cohort was produced as in Tischler et al. (2017). Briefly, Nosema spores were collected in 10 bees, concentrated and cultured. Cultures were added to 30% sucrose solutions and fed to the bees.

Another series deals with bee gut. The experiment in a line: Passage of dietary ergosterol across the bee gut. The format is in vivo. Conditions: ergosterol in bee diet.
Series [1] concerns adult worker honey bees (Apis mellifera) or adult worker bumble bees (Bombus terrestris). Put plainly: Two-choice preference assay: diet with ergosterol vs diet with no sterol. The format is in vivo. Conditions: feed containing ergosterol vs food without it, FIG. 1. How it is done: Example 1. Preference Assay: Bees Avoid Ergosterol in Foods Method: Newly emerged adult worker honey bees (Apis mellifera) or adult worker bumble bees (Bombus terrestris) were tested in a two-choice preference assay in which bees had access to two diets and adlibitum access to water. One treatment diet contained the ergosterol and the other contained no sterol. Newly emerged bees were removed from the brood frame and cohorts of 30 bees per replicate were housed in plastic rearing cages. In all experiments, 10 cohorts of ˜30 bees each were used for each treatment group. In all diets carbohydrate was maintained at 60% using powdered sugar and fat was maintained at 8% using an emulsion. Consumption of each diet was measured every 24 h for 5 days. Preference index was calculated as (amount of treatment consumed-amount of control consumed)/(total amount of food consumed).

For a further series, the system named is adult worker honey bees. The experiment in a line: Survival of bee cohorts on diets containing ergosterol. Format: in vivo, Apis mellifera. As to conditions: bees fed diets containing ergosterol, FIG. 2. An excerpt: Example 2: Survival: Bees are Less Likely to Survive on Diets Containing Ergosterol Method: Newly emerged adult worker honey bees fed with a diet treatment and ad libitum access to water. The treatment diet contained the ergosterol. Newly-emerged bees were removed from the brood frame and cohorts of 30 bees per replicate were housed in plastic rearing cages. In all experiments, 10 cohorts of ˜30 bees each were used for each treatment group. In all diets carbohydrate was maintained at 60% using powdered sugar and fat was maintained at 8% using an emulsion. Consumption of each diet was measured every day over the course of the experiment. The number of bees alive in the box was counted each day for 14 days.

In the case of `CC(C)[C@@H](C)/C=C/[C@@H](C)[C@H]1CC[C@H]2C3=CC=C4C[C@@H](O)CC[C@]4(C)[C@H]3CC[C@]12C` [ergosterol], the Brood production entry in the series on honey bees is “less brood”. Moreover, the “Nosema population in the gut” value with Nosema ceranae is recorded as “increases the Nosema population in the gut”. Besides, the Mortality result in the series with Nosema ceranae (bees inoculated with Nosema ceranae) is recorded as “higher mortality”. In the series on bee gut, the “Crossing of the bee gut” value is reported as “does not cross the bee gut”. Besides, the Diet preference entry in series [1] is on record as “bees actively avoid feed containing ergosterol”. The Lifespan result in the series with adult worker honey bees is listed as “shorter lifespans”.
